Laboratory results reported in patent publication US20050080113A1, “Medicinal compositions” (priority 2001, published 2005).

Assays:
human p38 MAP kinase [1] = biological target: T1, human p38 MAP kinase (Homo sapiens, UniProt Q16539); assay: Inhibition of active type p38 MAP kinase (32P incorporation into Myelin Basic Protein), Reference Example K 1; assay type: biochemical; details: Reference Example H compounds, 30° C., 60 minutes
T1 construct: made in house; host or cells: Sf-21 insect cells, baculovirus (BAC-HP38 co-infected with BAC-caMKK3)
Procedure: Genetic manipulation methods described below are based on methods described in Maniatis et al., Molecular Cloning, ColdSpring Harbor Laboratory, 1989, and the appended reagent protocol.
(§1) (1) Cloning of Human p38 MAP Kinase Gene and Preparation of Recombinant Baculovirus
Cloning of human p38 MAP kinase gene was conducted by a PCR method using primer set p38 U: 5′-[…] C-3′ [SEQ ID No. 1] and PAG-L: 5′-[…]-3′ [SEQ ID No. 2] synthesized referring to the nucleotide sequence of p38 MAP kinase gene of Han et al., Science 265 (5173), 808 811 (1994), utilizing kidney cDNA (QUICK-Clone cDNA, manufactured by Toyobo Co., Ltd.) as a template.
A PCR reaction was performed according to Hot Start method using AmpliWax PCR Gem 100 (Takara Shuzo Co., Ltd.). For preparing lower layer mixed liquid, 2 μL of 10×LA PCR Buffer, 3 μL of 2.5 mM dNTP solution, each 2.5 μL of 12.5 μM primer solution, and 10 μL of sterile distilled water were mixed. For preparing upper layer mixed liquid, 1 μL of human heart cDNA (1 ng/mL) as a template, 3 μL of 10×LA PCR Buffer, 1 μL of 2.5 mM dNTP solution, 0.5 μL of TaKaRa LA Taq DNA polymerase (Takara Shuzo Co., Ltd.) and 24.5 μL of sterile distilled water were mixed. To the prepared lower mixed liquid was added one AmpliWax PCR Gem 100 (Takara Shuzo Co., Ltd.), treated for 5 minutes at 70° C. and 5 minutes in ice, then, the upper mixed liquid was added, to prepare a reaction solution for PCR. A tube filled with the reaction solution was set on Thermal Cycler (Perkin Elmer), then, treated for 2 minutes at 95° C. Further, a cycle including 15 seconds at 95° C. and 2 minutes at 68° C. was repeated 35 times, then, treated for 8 minutes at 72° C. The resulted PCR product was subjected to agarose gel (1%) electrophoresis, a 1.1 kb DNA fragment containing a p38 MAP kinase gene was recovered from the gel, then, pT7Blue-T vector (Takara Shuzo Co., Ltd.) was inserted to prepare a plasmid pHP38.
4.8 kb XhoI-KpnI fragment of plasmid pFASTBAC1 (CIBCOBRL) and 1.1 kb XhoI-Kpn fragment of the above-mentioned plasmid pHP38 were ligated to construct plasmid pFBHP38.
Plasmid pFBHP38 and BAC-TO-BAC Baculovirus Expression System (GIBCOBRL) were used to prepare virus stock BAC-HP38 of recombinant baculovirus.
(§2) (2) Cloning of Human MKK3 Gene and Preparation of Recombinant Baculovirus
Cloning of human MKK3 gene was conducted by a PCR method using primer set MKK-U: 5′-[…] 3′ [SEQ ID No. 3] and MKK-L: 5′-[…]-3′ [SEQ ID No. 4] synthesized referring to the nucleotide sequence of MKK3 gene of Derijard, B. et al., Science 267 (5198), 682 685 (1995), utilizing kidney cDNA (QUICK-Clone cDNA, manufactured by Toyobo Co., Ltd.) as a template.
A PCR reaction was performed according to Hot Start method using AmpliWax PCR Gem 100 (Takara Shuzo Co., Ltd.). […]

[2] = system: TNF-α production in THP-1 cells; assay: Measurement of inhibitory activity of TNF-α production (LPS-stimulated THP-1 cells, ELISA), Reference Example K 2; assay type: cell-based; details: Homo sapiens, Reference Example H compounds, LPS 5 μg/mL, 4 hours, read-out: IC50 (inhibition of TNF-α production)
Procedure: THP-1 cells cultured in a PRMI 1640 medium (Life Technologies, Inc., USA) containing 1% inactivated fetal bovine serum (Life Technologies, Inc.) and 10 mM HEPES (pH 7.5) were inoculated on a 96 well plate to give 1×10^5 cells/well, then, 1 μL of a sample compound dissolved in DMSO was added. After incubation for 1 hour at 37° C. in a CO2 incubator, LPS (Wako Pure Chemical Industries Ltd.) was added to give a final concentration of 5 μg/mL. After incubation for 4 hours at 37° C. in a CO2 incubator, the supernatant was obtained by centrifugal separation. The TNF-α concentration in the supernatant was measured by ELISA (R&D Systems, Quantikine Kit). The concentration (IC50 value) of a sample compound necessary for inhibiting 50% of TNF-α production was calculated by PRISM 2.01 (GraphPad Software).

human p38 MAP kinase [3] = biological target: T1, human p38 MAP kinase; assay: Measurement of the p38 MAP kinase inhibitory activity, 32P uptake into Myelin Basic Protein (Reference Example F 2); assay type: biochemical; details: active form p38 MAP kinase, 30° C. 60 minutes, read-out: IC50 (p38 MAP kinase inhibitory activity, uptake of 32P into acid insoluble fraction)
Procedure: The genetic manipulations described below were according to the methods described in the book (Maniatis et al., Molecular Cloning, Cold Spring Harbor Laboratory, 1989) or a method described in the protocol attached to the reagent.
as §1
Cloning of human p38 MAP kinase gene was performed by a PCR method using a primer set P38 U: 5′-[…]-3′ [SEQ ID NO:9] and PAG-L: 5′-[…]-3′ [SEQ ID NO:10] made by reference to the base sequence of p38 MAP kinase gene reported by Han et al. (Science 265 (5173), 808 811 (1994)) and employing kidney cDNA (Toyobo, QUICK-Clone cDNA) as a template.
A PCR reaction was performed by a Hot Start method using AmpliWax PCR Gem 100 (Takara Shuzo). As the lower mixed solution, 2 μL 10×LA PCR Buffer, 3 μL 2.5 mM dNTP solution, each 2.5 μL of 12.5 μM primer solution, and 10 μL sterile distilled water were mixed. As the upper mixed solution, 1 μL human cardiac cDNA (1 ng/mL) as a template, 3 μL 10×LA PCR Buffer, 1 μL 2.5 mM dNTP solution, 0.5 μL TaKaRa LA Taq DNA polymerase (Takara Shuzo), and 24.5 μL sterile distilled water were mixed. One AmpliWax PCR Gem 100 (Takara Shuzo) was added to the prepared lower mixed solution to treat at 70° C. for 5 minutes and for 5 minutes in an ice and, thereafter, the upper mixed solution was added to prepare a reaction solution for PCR. A tube containing the reaction solution was set at a thermal cycler (Perkin Elmer), which was treated at 95° C. for 2 minutes. Further, after repeating 35 times a cycle of 15 seconds at 95° C. and 2 minutes at 68° C., treatment was performed at 72° C. for 8 minutes. The resulting PCR product was subjected to agarose gel (1%) electrophoresis, 1.1 kb DNA fragment containing p38 MAP kinase gene was recovered from the gel and, thereafter, which was inserted into pT7Blue-T vector (Takara Shuzo) to make the plasmid pHP38.
The 4.8 kb XhoI-KpnI fragment of the plasmid pFASTBAC1 (CIBCOBRL) and the 1.1 kb XhoI-Kpn fragment of the above plasmid pHP38 were ligated to make the plasmid pFBHP38.
The plasmid pFBHP38 and BAC-TO-BAC Baculovirus Expression System (GIBCOBRL) were used to prepare the recombinant Baculovirus virusstock BAC-HP38.
as §2
Cloning of human MKK3 gene was performed by a PCR method using a primer set MKK-U: 5′-[…]-3′ [SEQ ID NO:11] and MKK-L: 5′-[…]-3′ [SEQ ID NO:12] made by reference to the base sequence of MKK3 gene reported by Derijard, B. et al., Science 267 (5198), 682 685 (1995) and using kidney cDNA (Toyobo, QUICK-Clone cDNA).
A PCR reaction was performed by a Hot Start method using AmpliWax PCR Gem 100 (Takara Shuzo). As the lower mixed solution, 2 μL 10×LA PCR Buffer, 3 μL 2.5 mM dNTP solution, each 2.5 μL of 12.5 μM primer solution, and 10 μL sterile distilled water were mixed. As the upper mixed solution, 1 μL human kidney cDNA (1 ng/mL), 3 μL 10×LA PCR Buffer, 1 μL 2.5 mM dNTP solution, 0.5 μL TaKaRa LA taq DNA polymerase (Takara Shuzo) and 24.5 μL sterile distilled water were mixed. One AmpliWax PCR Gem 100 (Takara Shuzo) was added to the prepared lower mixed solution to treat at 70° C. for 5 minutes and for 5 minutes in ice and, thereafter, the upper mixed solution was added to prepare a reaction solution for PCR. A tube containing the reaction solution was set at a thermal cycler (Perkin Elmer), which was treated at 95° C. for 2 minutes. Further, after repeating 35 times a cycle of 15 seconds at 95° C. and 2 minutes at 68° C., treatment was performed at 72° C. for 8 minutes. The resulting PCR product was subjected to agarose gel (1%) electrophoresis, 1.0 kb DNA fragment containing MKK3 gene was recovered from the gel and, thereafter, which was inserted into pT7Blue-T vector (Takara Shuzo) to make the plasmid pHMKK3. […]

TNF-α production = assay: Measurement of inhibiting activity of TNF-α production in LPS-stimulated THP-1 cells, ELISA (Reference Example F 3); assay type: cell-based; details: Homo sapiens, LPS 5 μg/mL, 4 hours, ELISA (R&D System)
Procedure: Measurement of Inhibiting Activity of TNF-α Production
After THP-1 cells which had been cultured in PRMI 1640 medium (manufactured by Life Technologies, Inc.) containing 1% non-activated bovine fetal serum (manufactured by Life Technologies, Inc., U.S.A.) and 10 mM HEPES (pH 7.5) seeded on a 96 well plate to 1×10^5 cells/well, 1 μL test compound dissolved in DMSO was added to there. After incubation at 37° C. for 1 hour in a CO2 incubator, LPS (Wako Pure Chemicals) was added to the final concentration 5 μg/mL. After cultured at 37° C. for 4 hours in a CO2 incubator, the supernatant was obtained by centrifugation. The concentration of TNF-α in the supernatant was measured with ELISA (R&D System, Quantikine Kit). The concentration (IC50 value) necessary for inhibiting TNF-α production by 50% was calculated by PRIMS 2.01 (Graphpad Software).

T1 sequence (Q16539 whole entry): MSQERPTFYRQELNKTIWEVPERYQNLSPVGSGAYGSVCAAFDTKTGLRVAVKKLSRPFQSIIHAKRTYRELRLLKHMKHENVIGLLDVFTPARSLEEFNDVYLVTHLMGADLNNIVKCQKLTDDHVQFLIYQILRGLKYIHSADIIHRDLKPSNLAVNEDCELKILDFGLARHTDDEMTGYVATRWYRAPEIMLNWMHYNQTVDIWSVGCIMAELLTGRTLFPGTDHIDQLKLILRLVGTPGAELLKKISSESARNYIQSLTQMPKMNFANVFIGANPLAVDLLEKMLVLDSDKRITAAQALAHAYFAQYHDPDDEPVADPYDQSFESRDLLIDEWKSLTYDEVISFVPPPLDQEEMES

Row | IC50 (human p38 MAP kinase [1]) | IC50 [2] | melting point | IC50 (human p38 MAP kinase [3]) | IC50 (TNF-α production) | SMILES
1 | 1.1 nM | 55 nM | 106 to 107 °C |  |  | CCc1nc(-c2cccc(Cl)c2)c(-c2ccnc(NC3CCCCC3)c2)s1 [36-10]
2 | 8.4 nM | 21 nM | 224 to 225 °C |  |  | CCC(=O)Nc1cc(-c2sc(-c3ccc(S(C)(=O)=O)cc3)nc2-c2cccc(Cl)c2)ccn1 [58-7]
3 |  |  |  | 23 nM | 26 nM | COc1ccc(-c2nc(NC(=O)c3cccnc3)sc2-c2ccnc(NC(=O)c3cccnc3)c2)cc1 [D 3, N-[4-(4-methoxyphenyl)-5-[2-[(3-pyridylcarbonylamino)]-4-pyridyl]-1,3-thiazol-2-yl]nicotinamide]
4 |  |  |  | 20 nM | 14 nM | COc1ccc(-c2nc(N)sc2-c2ccnc(NC(=O)c3ccccc3)c2)cc1 [D 4, N-[4-[2-amino-4-(4-methoxyphenyl)-1,3-thiazol-5-yl]-2-pyridyl]benzamide]
5 |  |  |  | 23 nM | 140 nM | Cc1cc(C)cc(-c2nc(N)sc2-c2ccnc(NCc3ccccc3)c2)c1 [D 6, N-[4-[2-amino-4-(3,5-dimethylphenyl)-1,3-thiazol-5-yl]-2-pyridyl]benzylamine]
6 | 10 nM | 120 nM | 149 to 150 °C |  |  | CCc1nc(-c2cccc(Cl)c2)c(-c2ccnc(NC(C)=O)c2)s1 [H 30-2, N-[4-[4-(3-chlorophenyl)-2-ethyl-1,3-thiazol-5-yl]-2-pyridyl]acetamide]
7 | 9.9 nM | 2 nM | 168 to 169 °C |  |  | Cc1cccc(-c2nc(N)sc2-c2ccnc(NC3CCCCC3)c2)c1 [H 34-2, [5 (2 cyclohexylamino-4-pyridyl)-4 (3 methylphenyl)-1,3thiazol-2 yl]amine]
